In the OPERA property sets (Mansouri et al. 2018):
≈ marks a conversion by molar mass, not a printed value.

Conditions: for solubility: 21 °C

Compound | logP | solubility [µM]
CC(=O)Nc1ccc(OC(=O)c2ccccc2OC(C)=O)cc1 | 2.15 | 63.8 (≈ 20 µg/mL)
CSCOC(=O)c1ccccc1OC(C)=O | 1.94 | 2290 (≈ 550 µg/mL)
CC(=O)Oc1ccccc1C(=O)OCC(=O)NCC(N)=O | -0.43 | –
CC(=O)Oc1ccccc1C(=O)OCS(C)=O (stereo not given) | 0.11 | –
CCNC(=O)COC(=O)c1ccccc1OC(C)=O | 0.9 | –
CC(=O)OCOC(=O)c1ccccc1OC(C)=O | 1.42 | –
CC(=O)Oc1ccccc1C(=O)Oc1ccccc1 | 2.88 | 78 (≈ 20 µg/mL)

Second part, the compound after the results:

logP | solubility [µM] | Compound
1.67 | – | CCOC(=O)COC(=O)c1ccccc1OC(C)=O
-0.46 | – | CC(=O)Oc1ccccc1C(=O)OCC(=O)N(C)CC(N)=O
2.03 | – | CC(=O)Oc1ccccc1C(=O)OCC(=O)N(C(C)C)C(C)C
1.67 | – | CCOC(=O)CN(C)C(=O)COC(=O)c1ccccc1OC(C)=O
0.38 | – | CC(=O)Oc1ccccc1C(=O)OCC(=O)N(C)C
